Source: EP0092121A1, “Methods and compositions for treating gastro-intestinal ulcer diesease” (BOARD OF REGENTS THE UNIVERSITY OF TEXAS SYSTEM, priority 1982, dated 1983)

System: acute pylorus-ligated rat preparation
Assay: In vivo protection against acid-induced gastric damage in HCl-challenged rats (gross examination, gastric hemoglobin)
Conditions: individual phospholipid, gastric sample hemoglobin after 0.6 N HCl
Description: Applicants directly investigated this question in an acute pylorus-ligated rat preparation, in which test agents could be administered directly into the stomach by way of an esophageal cannula. Rats were fasted overnight and maintained under Nembutal anesthesia throughout the study period. The rats were divided into two groups (3 rats/grp); one group which was designated "surfactant treated" received 0.5 ml of a liposomal suspension in saline of the following phospholipids: […], 15 µg of DPPE, DPPG, DPPI and Sphingomyelin; and the second group (controls) was intragastrically injected with 0.5 ml of saline. Five minutes later both groups received 1 ml of an ulcerogenic dose of 0.6 N HCI. The anesthetized animals were left undisturbed for 45 minutes, after which they were sacrificed, and the stomachs excised, opened along the greater curvature and examined.
In another series of in vivo experiments, the individual phospholipids: dipalmitoyl lecithin, dipalmitoyl phosphatidyl ethanolamine, and phosphatidyl choline were tested for anti-ulcer activity. The experiments were performed as described above. In addition, immediately before the rat was sacrificed, a gastric sample was withdrawn for hemoglobin analysis. […] Sample anti-ulcer activity was measured as a percent of hemoglobin count relative to hemoglobin detected from animals pretreated with the combination of 135 µg DPL, 15 µg of DPPE, DPPG, DPPI and sphingomyelin mixture.
Anti-ulcer activity was inversely proportional,to the amount of hemoglobin detected. Table I tabulates the relative anti-ulcer activity of the individually tested phospholipids.

Compound	ACTIVITY (anti-ulcer activity, hemoglobin count relative to mixture) (15 µg)	ACTIVITY (anti-ulcer activity, hemoglobin count relative to mixture) (135 µg) [%]
CCCCCCCCCCCCCCCC(=O)OCC(COP(=O)([O-])OCC[N+](C)(C)C)OC(=O)CCCCCCCCCCCCCCC (stereo not drawn) [Dipalmitoyl lecithin, dipalmitoyl lecithin]	95%	90
CCCCCCCCCCCCCCCC(=O)OCC(COP(=O)(O)OCCN)OC(=O)CCCCCCCCCCCCCCC (stereo not drawn) [Dipalmitoyl phosphatidyl ethanolamine, dipalmitoyl phosphatidyl ethanolamine]	75-80%	70
phosphatidylcholine [Phosphatidyl choline]	80%	80
